Measured values reported in ChEMBL document CHEMBL1141017, “Triterpene based compounds with potent anti-maturation activity against HIV-1” (Bioorg Med Chem Lett, 2008).

Assays:
[1] = Therapeutic index, ratio of TC50 for human MT4 cells to IC50 for HIV1 3B; format: cell-based
[2] = test system: Human immunodeficiency virus 1; assay: Antiviral activity against HIV1 NL4-3 infected in human MT4 cells assessed as cytoprotection against virus-induced cytopathic effect after 4 days by cell viability assay; format: functional, organism-based; details: Human immunodeficiency virus 1, NL4-3, MT4, 96 h
[3] = Metabolic stability in human liver microsomes assessed as compound remaining after 40 mins; format: ADME, Microsome; details: read-out: Stability
[4] = Metabolic stability in Sprague-Dawley rat liver microsomes assessed as compound remaining after 40 mins; format: ADME, Microsome; details: read-out: Stability
[5] = Cytotoxicity against human MT4 cells after 4 days by cell viability assay; format: cell-based; details: read-out: TC50
[6] = Therapeutic index, ratio of TC50 for human MT4 cells to EC50 for HIV1 NL43; format: cell-based
[7] = test system: Human immunodeficiency virus 1; assay: Antiviral activity against HIV1 3B replication in human PBMC assessed as reverse transcriptase activity after 7 days; format: functional, organism-based; details: Human immunodeficiency virus 1, 3B, 168 h
[8] = Cytotoxicity against human PBMC by cell viability assay; format: cell-based; details: read-out: TC50 (the source's name)

| Structure (SMILES) | selectivity ratio [1] | EC50 [2] [nM] | remaining at 40 min [3] [%] | remaining at 40 min [4] [%] | CC50 at 96 h [5] [nM] | selectivity ratio [6] | IC50 [7] [nM] | CC50 [8] [nM] |
| --- | --- | --- | --- | --- | --- | --- | --- | --- |
| C=C(C)[C@@H]1CC[C@]2(C(=O)NCc3ccc(N(C)C)cc3)CC[C@]3(C)[C@H](CC[C@@H]4[C@@]5(C)CC[C@H](OC(=O)CC(C)(C)C(=O)O)C(C)(C)[C@@H]5CC[C@]43C)[C@@H]12 | > 400 | 30 | 10 | 10 | 1000 | > 400 |  |  |
| C=C(C)[C@@H]1CC[C@]2(C(=O)NCc3ccc(F)cc3C(=O)O)CC[C@]3(C)[C@H](CC[C@@H]4[C@@]5(C)CC[C@H](OC(=O)CC(C)(C)C(=O)O)C(C)(C)[C@@H]5CC[C@]43C)[C@@H]12 | > 400 | 52 | 10 | 10 | 3200 | > 400 | 4 | 1500 |
| C=C(C)[C@@H]1CC[C@]2(C(=O)NCCc3cccc(OC)c3)CC[C@]3(C)[C@H](CC[C@@H]4[C@@]5(C)CC[C@H](OC(=O)CC(C)(C)C(=O)O)C(C)(C)[C@@H]5CC[C@]43C)[C@@H]12 |  | 40 |  |  | > 10000 |  |  |  |
| C=C(C)[C@@H]1CC[C@]2(C(=O)NCc3ccc(-c4ccccc4)cc3)CC[C@]3(C)[C@H](CC[C@@H]4[C@@]5(C)CC[C@H](OC(=O)CC(C)(C)C(=O)O)C(C)(C)[C@@H]5CC[C@]43C)[C@@H]12 | > 400 | 267 | 10 |  | > 10000 | > 400 |  |  |
| C=C(C)[C@@H]1CC[C@]2(C(=O)NCc3cccc(C(=O)NCCNC(C)=O)c3)CC[C@]3(C)[C@H](CC[C@@H]4[C@@]5(C)CC[C@H](OC(=O)CC(C)(C)C(=O)O)C(C)(C)[C@@H]5CC[C@]43C)[C@@H]12 | > 400 | 10 |  | 10 | 10000 | > 400 |  |  |
| C=C(C)[C@@H]1CC[C@]2(C(=O)NCCCc3ccc(OC)c(OC)c3)CC[C@]3(C)[C@H](CC[C@@H]4[C@@]5(C)CC[C@H](OC(=O)CC(C)(C)C(=O)O)C(C)(C)[C@@H]5CC[C@]43C)[C@@H]12 |  | 20 |  |  | 10000 |  |  |  |
| C=C(C)[C@@H]1CC[C@]2(C(=O)NCc3ccccc3C)CC[C@]3(C)[C@H](CC[C@@H]4[C@@]5(C)CC[C@H](OC(=O)CC(C)(C)C(=O)O)C(C)(C)[C@@H]5CC[C@]43C)[C@@H]12 | > 400 | 85 | 10 |  | > 10000 | > 400 |  |  |
| C=C(C)[C@@H]1CC[C@]2(C(=O)NCc3ccccc3-c3ccccc3)CC[C@]3(C)[C@H](CC[C@@H]4[C@@]5(C)CC[C@H](OC(=O)CC(C)(C)C(=O)O)C(C)(C)[C@@H]5CC[C@]43C)[C@@H]12 | > 400 | 290 |  |  | > 10000 | > 400 |  |  |
| C=C(C)[C@@H]1CC[C@]2(C(=O)N[C@H]3CCc4ccccc43)CC[C@]3(C)[C@H](CC[C@@H]4[C@@]5(C)CC[C@H](OC(=O)CC(C)(C)C(=O)O)C(C)(C)[C@@H]5CC[C@]43C)[C@@H]12 |  | 200 |  |  | > 10000 |  |  |  |
| C=C(C)[C@@H]1CC[C@]2(C(=O)NCc3cccc(C(=O)O)c3)CC[C@]3(C)[C@H](CC[C@@H]4[C@@]5(C)CC[C@H](OC(=O)CC(C)(C)C(=O)O)C(C)(C)[C@@H]5CC[C@]43C)[C@@H]12 | > 400 | 480 | 10 | 10 | 7600 | > 400 |  |  |
| C=C(C)[C@@H]1CC[C@]2(C(=O)N[C@H]3CCCc4ccccc43)CC[C@]3(C)[C@H](CC[C@@H]4[C@@]5(C)CC[C@H](OC(=O)CC(C)(C)C(=O)O)C(C)(C)[C@@H]5CC[C@]43C)[C@@H]12 |  | 180 |  |  | > 10000 |  |  |  |
| C=C(C)[C@@H]1CC[C@]2(C(=O)NCc3nc4ccccc4s3)CC[C@]3(C)[C@H](CC[C@@H]4[C@@]5(C)CC[C@H](OC(=O)CC(C)(C)C(=O)O)C(C)(C)[C@@H]5CC[C@]43C)[C@@H]12 |  | 33 |  |  | 6800 |  | 3 | > 10000 |
| C=C(C)[C@@H]1CC[C@]2(C(=O)NCc3ccc(C(=O)O)cn3)CC[C@]3(C)[C@H](CC[C@@H]4[C@@]5(C)CC[C@H](OC(=O)CC(C)(C)C(=O)O)C(C)(C)[C@@H]5CC[C@]43C)[C@@H]12 |  | 1700 |  |  | > 10000 |  |  |  |
| C=C(C)[C@@H]1CC[C@]2(C(=O)NCc3ccoc3)CC[C@]3(C)[C@H](CC[C@@H]4[C@@]5(C)CC[C@H](OC(=O)CC(C)(C)C(=O)O)C(C)(C)[C@@H]5CC[C@]43C)[C@@H]12 |  | 7 |  |  | > 10000 |  | 7 | > 10000 |
| C=C(C)[C@@H]1CC[C@]2(C(=O)NCc3cccnc3C(=O)O)CC[C@]3(C)[C@H](CC[C@@H]4[C@@]5(C)CC[C@H](OC(=O)CC(C)(C)C(=O)O)C(C)(C)[C@@H]5CC[C@]43C)[C@@H]12 |  | 24 |  |  | > 10000 |  | 30 | > 10000 |
| C=C(C)[C@@H]1CC[C@]2(C(=O)NCc3ccc4ccccc4n3)CC[C@]3(C)[C@H](CC[C@@H]4[C@@]5(C)CC[C@H](OC(=O)CC(C)(C)C(=O)O)C(C)(C)[C@@H]5CC[C@]43C)[C@@H]12 |  | 26 |  |  | > 10000 |  |  |  |
| C=C(C)[C@@H]1CC[C@]2(C(=O)NCc3ccc(C(=O)NCCNC(C)=O)cc3)CC[C@]3(C)[C@H](CC[C@@H]4[C@@]5(C)CC[C@H](OC(=O)CC(C)(C)C(=O)O)C(C)(C)[C@@H]5CC[C@]43C)[C@@H]12 | > 400 | 30 |  |  | 10000 | > 400 |  |  |
| C=C(C)[C@@H]1CC[C@]2(C(=O)N3Cc4ccccc4C3)CC[C@]3(C)[C@H](CC[C@@H]4[C@@]5(C)CC[C@H](OC(=O)CC(C)(C)C(=O)O)C(C)(C)[C@@H]5CC[C@]43C)[C@@H]12 |  | 70 |  |  | > 10000 |  |  |  |
| C=C(C)[C@@H]1CC[C@]2(C(=O)NCc3ccccc3C(=O)NCCNC(C)=O)CC[C@]3(C)[C@H](CC[C@@H]4[C@@]5(C)CC[C@H](OC(=O)CC(C)(C)C(=O)O)C(C)(C)[C@@H]5CC[C@]43C)[C@@H]12 | > 400 | 5 |  |  | 9300 | > 400 |  |  |
| C=C(C)[C@@H]1CC[C@]2(C(=O)N[C@H](C(=O)O)c3ccc(OC)cc3)CC[C@]3(C)[C@H](CC[C@@H]4[C@@]5(C)CC[C@H](OC(=O)CC(C)(C)C(=O)O)C(C)(C)[C@@H]5CC[C@]43C)[C@@H]12 |  | 40 |  |  | 6800 |  |  |  |
| C=C(C)[C@@H]1CC[C@]2(C(=O)NCc3ccc4cccc(O)c4n3)CC[C@]3(C)[C@H](CC[C@@H]4[C@@]5(C)CC[C@H](OC(=O)CC(C)(C)C(=O)O)C(C)(C)[C@@H]5CC[C@]43C)[C@@H]12 |  | 3 | > 40 | > 40 | > 10000 |  | 4 | > 10000 |
| C=C(C)[C@@H]1CC[C@]2(C(=O)N[C@@H](Cc3ccc(OC)cc3)C(=O)O)CC[C@]3(C)[C@H](CC[C@@H]4[C@@]5(C)CC[C@H](OC(=O)CC(C)(C)C(=O)O)C(C)(C)[C@@H]5CC[C@]43C)[C@@H]12 |  | 9 |  |  | 5600 |  |  |  |
| C=C(C)[C@@H]1CC[C@]2(C(=O)NCCc3ccc(C(=O)O)cc3)CC[C@]3(C)[C@H](CC[C@@H]4[C@@]5(C)CC[C@H](OC(=O)CC(C)(C)C(=O)O)C(C)(C)[C@@H]5CC[C@]43C)[C@@H]12 |  | 1000 |  |  | 1000 |  |  |  |
| C=C(C)[C@@H]1CC[C@]2(C(=O)NCc3ccccc3)CC[C@]3(C)[C@H](CC[C@@H]4[C@@]5(C)CC[C@H](OC(=O)CC(C)(C)C(=O)O)C(C)(C)[C@@H]5CC[C@]43C)[C@@H]12 | > 400 | 23 |  | 10 | > 10000 | > 400 | 11 | > 10000 |
| C=C(C)[C@@H]1CC[C@]2(C(=O)NCc3ccc(C(=O)O)cc3)CC[C@]3(C)[C@H](CC[C@@H]4[C@@]5(C)CC[C@H](OC(=O)CC(C)(C)C(=O)O)C(C)(C)[C@@H]5CC[C@]43C)[C@@H]12 | > 400 | 165 | 10 | 10 | 8900 | > 400 |  |  |
| C=C(C)[C@@H]1CC[C@]2(C(=O)NCc3nc4ccccc4[nH]3)CC[C@]3(C)[C@H](CC[C@@H]4[C@@]5(C)CC[C@H](OC(=O)CC(C)(C)C(=O)O)C(C)(C)[C@@H]5CC[C@]43C)[C@@H]12 |  | 5 |  |  | 8600 |  | 1 | > 10000 |
| C=C(C)[C@@H]1CC[C@]2(C(=O)NCc3ncccc3C(=O)O)CC[C@]3(C)[C@H](CC[C@@H]4[C@@]5(C)CC[C@H](OC(=O)CC(C)(C)C(=O)O)C(C)(C)[C@@H]5CC[C@]43C)[C@@H]12 |  | 129 |  |  | > 10000 |  |  |  |
| C=C(C)[C@@H]1CC[C@]2(C(=O)NCCCc3ccc(OC)cc3)CC[C@]3(C)[C@H](CC[C@@H]4[C@@]5(C)CC[C@H](OC(=O)CC(C)(C)C(=O)O)C(C)(C)[C@@H]5CC[C@]43C)[C@@H]12 |  | 80 |  |  | 10000 |  |  |  |
